# Results as given in patent US20060100226A1, “2-Thiopyrimidinones as therapeutic agents” (priority 2004, published 2006).
# Target: T1, murine MEKK2 (mMEKK2) (Mus musculus, UniProt Q61083)
# T1 sequence (Q61083 1-619): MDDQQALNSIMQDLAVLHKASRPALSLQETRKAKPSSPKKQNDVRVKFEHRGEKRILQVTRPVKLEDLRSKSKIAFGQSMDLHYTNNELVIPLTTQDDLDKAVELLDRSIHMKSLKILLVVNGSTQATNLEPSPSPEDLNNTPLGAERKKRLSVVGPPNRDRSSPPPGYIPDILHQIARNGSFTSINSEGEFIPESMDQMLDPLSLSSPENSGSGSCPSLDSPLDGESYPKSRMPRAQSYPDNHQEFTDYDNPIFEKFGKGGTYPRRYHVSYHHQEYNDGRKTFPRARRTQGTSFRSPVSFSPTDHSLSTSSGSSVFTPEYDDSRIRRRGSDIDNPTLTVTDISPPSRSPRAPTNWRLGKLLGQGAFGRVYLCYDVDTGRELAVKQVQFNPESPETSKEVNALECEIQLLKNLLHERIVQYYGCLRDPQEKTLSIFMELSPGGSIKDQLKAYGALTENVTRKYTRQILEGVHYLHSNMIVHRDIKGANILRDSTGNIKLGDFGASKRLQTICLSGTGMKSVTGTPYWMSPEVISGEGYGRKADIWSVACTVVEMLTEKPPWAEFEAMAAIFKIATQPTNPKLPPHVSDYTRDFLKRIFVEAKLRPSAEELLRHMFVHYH
# Experiment: TR-FRET kinase assay (mMEKK2/MBP)
# Assay type: biochemical
# Settings: substrate biotin MBP, 60 minutes at room temperature
# Experimental: In one approach, MEKK2 inhibitory activity of compounds of the invention can be assessed using the time-resolved Fluorescence Resonance Energy Transfer (TR-FRET) assay detailed in Example 5. In this assay, the excitation energy of one fluorescent molecule (the donor) is transferred by a resonance mechanism to a nearby second fluorescent molecule (the acceptor), which then releases its fluorescent energy through fluorescent emission. This fluorescent energy is measured using a time-resolved fluorescence measurement protocol (LANCE high count 615/665); excitation occurred with 1,000 flashes at 325 nm, measurement was delayed by 100 μs, and data were acquired for 50 μs at 615 and 665 nm.
# A TR-FRET kinase assay was used to screen potential inhibitors of MEKK2. The assay was performed as follows: Compounds to be tested were weighed and solubilized in DMSO (Sigma) to a stock concentration of 10 mM. Serial dilutions starting from 1 mM were prepared with additional DMSO. These dilutions were further diluted to 250 μM in kinase reaction buffer [20 mM Hepes pH 7.5, 5 mM MgCl2, 1 mM DTT (Dithiothreitol-Sigma), 1 mM NaVO4 (sodium vanadate-Sigma). A 25 μl aliquot of this solution was transferred to a black 96-well nonbinding surface microplate (Fisher). A stock aliquot containing […] of murine MEKK2 (mMEKK2) was diluted in the kinase reaction buffer and incubated with the compounds on the microplate for 10 minutes. A 25 μl aliquot of a 138 ng solution of biotin MBP (myelin basic protein—Upstate Biotechnology) was added to the reaction followed by 25 ul of a 25 ng solution of anti-phospho MBP antibody (Upstate Biotechnology) diluted in kinase reaction buffer. Finally an aliquot (50 μl) of a 5 uM solution of ATP (adenosine triphosphate) was added and the reaction was allowed to proceed for 60 minutes at room temperature. The reaction was stopped by the addition of 50 μL of a 12.5 ng solution of europium labeled anti-mouse IgG (Perkin Elmer) and 45 ng of Cy5 labeled streptavidin (Jackson Immunoresearch) in termination buffer (20 mM Hepes pH 7.5, 100 mM EDTA; Sigma). The assay was allowed to equilibrate for 45 minutes before placing the plate on the Victor™ plate reader. The plate was read using the 615/665 LANCE protocol.
row,Structure (SMILES),IC50
1,COc1cccc(-c2nc(SCc3cccc(NCc4ccc(-c5cccs5)s4)c3)[nH]c(=O)c2C#N)c1 [Example 1aa],< 1 µM
2,COc1cccc(-c2nc(SCc3cccc(NCc4cccc(Oc5ccccc5)c4)c3)[nH]c(=O)c2C#N)c1 [Example 1bb],< 1 µM
3,COc1cccc(-c2nc(SCc3cccc(NCc4cccc(Oc5cccc(C(F)(F)F)c5)c4)c3)[nH]c(=O)c2C#N)c1 [Example 1dd],< 1 µM
4,COc1cc(CNc2cccc(CSc3nc(-c4cccc(OC)c4)c(C#N)c(=O)[nH]3)c2)cc(OC)c1 [Example 1e],< 20 µM
5,COc1cccc(-c2nc(SCc3cccc(NCc4coc5cc(C)cc(C)c5c4=O)c3)[nH]c(=O)c2C#N)c1 [Example 1f],< 5 µM
6,COc1cccc(-c2nc(SCc3cccc(NCc4nc5ccccc5n4C)c3)[nH]c(=O)c2C#N)c1 [Example 1g],< 40 µM
7,COc1cccc(-c2nc(SCc3cccc(NCc4ccccc4N4CCOCC4)c3)[nH]c(=O)c2C#N)c1 [Example 1h],< 5 µM
8,COc1cccc(-c2nc(SCc3cccc(NCc4ccc(N5CCCCC5)cc4)c3)[nH]c(=O)c2C#N)c1 [Example 1i],< 10 µM
9,COc1cccc(-c2nc(SCc3cccc(NC[C@H]4CCCN4C(=O)OC(C)(C)C)c3)[nH]c(=O)c2C#N)c1 [Example 1j],< 20 µM
10,COc1cccc(-c2nc(SCc3cccc(NCc4cccn4CCC#N)c3)[nH]c(=O)c2C#N)c1 [Example 1l],< 20 µM
11,COc1cccc(-c2nc(SCc3cccc(NCc4ccc(Oc5cnccn5)cc4)c3)[nH]c(=O)c2C#N)c1 [Example 1m],< 20 µM
12,COc1cccc(-c2nc(SCc3cccc(NCc4ccc(OC)nc4)c3)[nH]c(=O)c2C#N)c1 [Example 1n],< 40 µM
13,COc1cccc(-c2nc(SCc3cccc(NCC4CCOCC4)c3)[nH]c(=O)c2C#N)c1 [Example 1o],> 40 µM
14,COc1cccc(-c2nc(SCc3cccc(NCc4ccc(-c5cc(C(F)(F)F)n(C)n5)s4)c3)[nH]c(=O)c2C#N)c1 [Example 1q],< 1 µM
15,COc1cccc(-c2nc(SCc3cccc(NCc4ccc(-n5ccnc5)cc4)c3)[nH]c(=O)c2C#N)c1 [Example 1r],< 20 µM
16,COc1cccc(-c2nc(SCc3cccc(NCc4c(C(F)(F)F)nn(C)c4Cl)c3)[nH]c(=O)c2C#N)c1 [Example 1s],< 10 µM
17,COc1cccc(-c2nc(SCc3cccc(NCc4ccc(N(C)C)c(C#N)c4F)c3)[nH]c(=O)c2C#N)c1 [Example 1t],< 5 µM
18,COc1cccc(-c2nc(SCc3cccc(NCc4ccc(C#N)cc4)c3)[nH]c(=O)c2C#N)c1 [Example 1u],< 10 µM
19,COc1cccc(-c2nc(SCc3cccc(NCc4cc(C)c(C)o4)c3)[nH]c(=O)c2C#N)c1 [Example 1w],< 5 µM
20,COc1cccc(-c2nc(SCc3cccc(NCc4c[nH]c5ccc(Cl)cc45)c3)[nH]c(=O)c2C#N)c1 [Example 1x],< 1 µM
21,COc1cccc(-c2nc(SCc3cccc(NCc4ccc5nsnc5c4)c3)[nH]c(=O)c2C#N)c1 [Example 1y],< 10 µM
22,COc1cccc(-c2nc(SCc3cccc(NCc4cnc(N(C)C)nc4)c3)[nH]c(=O)c2C#N)c1 [Example 1z],< 40 µM
23,"COc1cccc(-c2nc(SCc3cccc(NC(=O)c4cccc(Cl)c4)c3)[nH]c(=O)c2C#N)c1 [Example 2a, 3-Chloro-N-{3-[5-cyano-4-(3-methoxy-phenyl)-6-oxo-1,6-dihydro-pyrimidin-2-ylsulfanylmethyl]-phenyl}-benzamide]",< 5 µM
24,COc1cccc(-c2nc(SCc3ccc(NC(=O)c4sccc4Cl)cc3)[nH]c(=O)c2C#N)c1 [Example 2aaa],< 5 µM
25,COc1cccc(-c2nc(SCc3cccc(NC(=O)c4ccc(C)cc4)c3)[nH]c(=O)c2C#N)c1 [Example 2b],< 5 µM
26,CCCc1c(C(=O)Nc2ccc(CSc3nc(-c4cccc(OC)c4)c(C#N)c(=O)[nH]3)cc2)cnn1-c1ccc(Cl)cc1 [Example 2bbb],< 1 µM
27,COc1cccc(-c2nc(SCc3cccc(NC(=O)c4ccccc4)c3)[nH]c(=O)c2C#N)c1 [Example 2c],< 5 µM

row,Structure (SMILES),IC50
1,COc1cccc(-c2nc(SCc3cccc(NC(=O)c4ccc5ccccc5c4)c3)[nH]c(=O)c2C#N)c1 [Example 2d],< 5 µM
2,COc1cccc(-c2nc(SCc3ccc(NC(=O)c4cccc(OC(F)(F)F)c4)cc3)[nH]c(=O)c2C#N)c1 [Example 2ddd],< 5 µM
3,COc1cccc(-c2nc(SCc3cccc(NC(=O)CCc4ccccc4)c3)[nH]c(=O)c2C#N)c1 [Example 2e],< 5 µM
4,COc1cccc(-c2nc(SCc3ccc(NC(=O)c4cc(C(F)(F)F)cc(Cl)c4F)cc3)[nH]c(=O)c2C#N)c1 [Example 2eee],< 5 µM
5,COc1cccc(CC(=O)Nc2cccc(CSc3nc(-c4cccc(OC)c4)c(C#N)c(=O)[nH]3)c2)c1 [Example 2f],< 10 µM
6,COc1cccc(-c2nc(SCc3ccc(NC(=O)c4cnn(-c5ccccc5)c4C(F)(F)F)cc3)[nH]c(=O)c2C#N)c1 [Example 2fff],< 5 µM
7,COc1cccc(-c2nc(SCc3cccc(NC(=O)c4cccc(C(F)(F)F)c4)c3)[nH]c(=O)c2C#N)c1 [Example 2g],< 5 µM
8,COc1cccc(-c2nc(SCc3ccc(NC(=O)c4ccc(C(F)(F)F)cc4C(F)(F)F)cc3)[nH]c(=O)c2C#N)c1 [Example 2ggg],< 5 µM
9,COc1cccc(-c2nc(SCc3ccc(NC(=O)c4snnc4C)cc3)[nH]c(=O)c2C#N)c1 [Example 2hhh],< 40 µM
10,COc1cccc(-c2nc(SCc3ccc(NC(=O)C4=Cc5cc(Cl)ccc5OC4)cc3)[nH]c(=O)c2C#N)c1 [Example 2iii],< 5 µM
11,COc1cccc(-c2nc(SCc3cccc(NC(=O)COc4ccc(Cl)cc4)c3)[nH]c(=O)c2C#N)c1 [Example 2j],< 5 µM
12,COc1cccc(-c2nc(SCc3ccc(NC(=O)C4CCN(C(C)=O)CC4)cc3)[nH]c(=O)c2C#N)c1 [Example 2jjj],< 20 µM
13,COc1cccc(-c2nc(SCc3cccc(NC(=O)Cc4ccccc4)c3)[nH]c(=O)c2C#N)c1 [Example 2k],< 10 µM
14,COc1cccc(-c2nc(SCc3ccc(NC(=O)c4cc(C(F)(F)F)cc(C(F)(F)F)c4)cc3)[nH]c(=O)c2C#N)c1 [Example 2kkk],< 5 µM
15,COc1cccc(-c2nc(SCc3cccc(NC(=O)Cc4ccc(Cl)cc4)c3)[nH]c(=O)c2C#N)c1 [Example 2l],< 5 µM
16,COc1cccc(-c2nc(SCc3ccc(NC(=O)c4ccc(-c5ccccn5)s4)cc3)[nH]c(=O)c2C#N)c1 [Example 2lll],< 5 µM
17,COc1cccc(-c2nc(SCc3cccc(NC(=O)c4cc5ccccc5s4)c3)[nH]c(=O)c2C#N)c1 [Example 2m],< 5 µM
18,COc1cccc(-c2nc(SCc3ccccc3NC(=O)Cc3ccccc3)[nH]c(=O)c2C#N)c1 [Example 2mmm],< 40 µM
19,COc1cccc(-c2nc(SCc3ccccc3NC(=O)c3ccccc3)[nH]c(=O)c2C#N)c1 [Example 2nnn],< 40 µM
20,COc1cccc(-c2nc(SCc3cccc(NC(=O)c4ccc5c(c4)OCO5)c3)[nH]c(=O)c2C#N)c1 [Example 2o],< 5 µM
21,COc1cccc(-c2nc(SCc3ccccc3NC(=O)c3cccc(C(F)(F)F)c3)[nH]c(=O)c2C#N)c1 [Example 2ooo],> 40 µM
22,COc1cccc(-c2nc(SCc3cccc(NC(=O)c4cc(Cl)cc(Cl)c4)c3)[nH]c(=O)c2C#N)c1 [Example 2p],< 5 µM
23,COc1cccc(-c2nc(SCc3ccc(NC(=O)c4ccccc4)cc3)[nH]c(=O)c2C#N)c1 [Example 2pp],< 20 µM
24,COc1cccc(-c2nc(SCc3cccc(NC(=O)c4cc(C(C)(C)C)nn4C)c3)[nH]c(=O)c2C#N)c1 [Example 2q],< 5 µM
25,COc1cccc(-c2nc(SCc3ccc(NC(=O)c4ccc(OC(F)(F)F)cc4)cc3)[nH]c(=O)c2C#N)c1 [Example 2qq],< 5 µM
26,COc1cccc(-c2nc(SCc3cccc(NC(=O)c4cc(C)on4)c3)[nH]c(=O)c2C#N)c1 [Example 2r],< 20 µM
